Measured values from patent EP1137645B1, “ALPHA-METHYLBENZYL-CONTAINING THIOUREA INHIBITORS OF HERPES VIRUSES CONTAINING A […] GROUP” (Wyeth, priority 1998, dated 2000).
Values after ≈ are worked out from the molar mass of the structure shown. Like-named read-outs stand apart in the source and are kept apart here.

Columns and labels:
[1] = tested on: HCMV recombinant mutant virus whose genome contains the prokaryotic beta-glucuronidase gene; experiment: microbe, parasite or virus in culture; format: cell-based, human cytomegalovirus; conditions: Human betaherpesvirus 5, Fibroblast
Text: Microtiter plate assay. Ninety-six well plate cultures of human foreskin fibroblasts are infected in the presence of inhibitor compound with a HCMV recombinant mutant virus whose genome contains the prokaryotic beta-glucuronidase gene (Jefferson, R. A., S. M. Burgess, and D. Hirsh. 1986. Beta-glucuronidase from Escherichia coli as a gene fusion marker. Proc. Natl. Acad. Sci. USA 83:8447-8451) whose expression is controlled by a viral promoter. An example of such a virus is RV145 (Jones, T. R., V. P. Muzithras, and Y. Gluzman. 1991. Replacement mutagenesis of the human cytomegalovirus genome: US10 and US11 gene products are nonessential. J. Virol. 65:5860-5872). Since it is under the control of a viral promoter, beta-glucuronidase expression is an indirect indicator of growth and replication of HCMV in this assay. At 96 hours post-infection, the infected cell lysates are prepared (using 50mM sodium phosphate [pH7.0] containing 0.1% Triton X-100 and 0.1% sarkosyl) and assayed for beta-glucuronidase activity using a substrate for the enzyme which when cleaved yields either a product which can be measured colorimetrically in a spectrophotometer or fluorescently in a microfluorimeter. Examples of such substrates are p-nitrophenyl-beta-D-glucuronide and methylumbelliferylglucuronide, respectively. The presence of an antiviral compound is indicated by the reduced expression of the HCMV genome resident beta-glucuronidase gene, compared to the absence of inhibitor. […] Data from this assay generated using varying amounts of inhibitor compound is also used to estimate the IC50 of an inhibitor compound.

HSV- I = experiment: HSV antiviral (ELISA) assay; format: cell-based; conditions: read-out: IC50 (ug/ml) HSV
Experimental: Vero cells (ATCC #CCL-81) are plated on 96-well tissue culture plates at 3.5x10^4 cells per 100µl tissue culture DMEM (Dulbecco's modified Eagle media) supplemented with 2% fetal bovine serum (FBS) in each well. After overnight incubation @ 37°C (in 5% CO2) and 30 minutes prior to infection with HSV- I (multiplicity of infection equal to 0.006), cells are either untreated, or treated with test compound (multiple concentrations) or reference standard drug control. After approximately 24 hours post-infection incubation @ 37°C (in 5% CO2), cells are fixed for ELISA assay. The primary antibody is murine anti-HSV glycoprotein D monoclonal primary antibody and the secondary antibody is goat anti-mouse IgG linked to β-galactosidase. Thus the extent of viral replication is determined by assessing β-galactosidase activity by quantifying the generation of the 4-methyl umbelliferone fluorescent cleavage product after addition of the methyl umbelliferyl-β-D-galactoside (Sigma #M1633) substrate on a microfluorimeter (365nm for excitation and 450nm for emission). Antiviral activity (IC50) of the test compound is determined by comparing the flourescence obtained in absence of compound to that obtained in the presence of compound.

VZV strain Ellen = experiment: VZV antiviral (ELISA) assay; format: cell-based
Experimental: For the generation of stock VZV to be used in the assay, VZV strain Ellen (ATCC #VR-1367) is used to infect human foreskin fibroblast (HFF) cells at low multiplicity (less than 0.1) and incubated overnight at 37°C in 5% CO2. After the overnight incubation, the mixture of uninfected and VZV-infected HFF infected cells are then harvested and added to each well of 96-well plates (3.5x10^4 cells in 100 µl DMEM supplemented with 2% FBS) which contain test compound or the reference standard drug control (in 100µl DMEM supplemented with 2% FBS per well). These cells are incubated for three days at 37°C in 5% CO2, then fixed for ELISA assay. The primary antibody is murine anti-VZV glycoprotein II monoclonal antibody (Applied Biosystems, Inc. #13-145-100) and the secondary antibody is goat anti-mouse IgG linked to β-galactosidase. Thus the extent of viral replication is determined by assessing β-galactosidase activity by quantifying the generation of the 4-methyl umbelliferone fluorescent cleavage product after addition of the methyl umbelliferyl-β-D-galactoside (Sigma #M1633) substrate on a microfluorimeter (365nm for excitation and 450nm for emission). Antiviral activity (IC50) of the test compound is determined by comparing the flourescence obtained in absence of compound to that obtained in the presence of compound.

[2] = read-out: IC50 ug/ml HCMV, HCMV, human foreskin fibroblasts

Compound | IC50 [1, 2] | IC50 (HSV- I; Vero) | also measured
O=C(Nc1ccc(NC(=S)NCCOc2cccc(Cl)c2)cc1)c1ccccc1F [Example 666, N-(4-{3-[2-(3-Chloro-phenoxy)-ethyl]-thioureido}-phenyl)-2-fluoro-benzamide] | > 0.5 µg/mL | 10 µg/mL (≈ 22.5 µM) | 
CC(NC(=S)Nc1ccc(NC(=O)c2ccc(N(C)C)cc2)cc1)c1ccc(F)cc1 (centres unmarked) [Example 765, 4-Dimethylamino-N-(4-{3-[1-(4-fluoro-phenyl)-ethyl]-thioureido}-phenyl)-benzamide] | 2.3 µg/mL (≈ 5.27 µM) | 10 µg/mL (≈ 22.9 µM) | 
O=C(Nc1ccc(NC(=S)NCCOc2ccc(Br)cc2)cc1)c1ccccc1F [Example 695, N-(4-{3-[2-(4-Bromo-phenoxy)-ethyl]-thioureido}-phenyl)-2-fluoro-benzamide] | > 3 µg/mL | > 10 µg/mL | 
Cc1cc(C)cc(CNC(=S)Nc2ccc(NC(=O)c3ccccc3F)cc2)c1 [Example 725, N-{4-[3-(3,5-Dimethyl-benzyl)-thioureido]-phenyl}-2-fluoro-benzamide] |  | > 10 µg/mL | 
COc1ccccc1C(=O)Nc1ccc(NC(=S)NC(C)c2ccc(F)cc2)cc1 (centres unmarked) [Example 752, N-(4-{3-(1-(4-Fluoro-phenyl)-ethyl]-thioureido}-phenyl)-2-methoxy-benzamide] | > 0.5 µg/mL | > 10 µg/mL | 
O=C(Nc1ccc(NC(=S)NCCSc2ccccc2)cc1)c1ccccc1F [Example 656, 2-Fluoro-N-{4-[3-(2-phenylsulfanyl-ethyl)-thioureido]-phenyl}-benzamide] | > 0.5 µg/mL | 5 µg/mL (≈ 11.7 µM) | 
CCC(NC(=S)Nc1ccc(NC(=O)c2ccccc2F)cc1)c1ccc(F)cc1 (centres unmarked) [Example 771, 2-Fluoro-N-(4-{3-[1-(4-fluoro-phenyl)-propyl]-thioureido}-phenyl)-benzamide] | 0.4 µg/mL (≈ 0.94 µM) | > 10 µg/mL | 
O=C(Nc1ccc(NC(=S)NCCSc2cccc(Br)c2)cc1)c1ccccc1F [Example 680, N-(4-{3-[2-(3-Bromo-phenylsulfanyl)-ethyl]-thioureido}-phenyl)-2-fluoro-benzamide] | > 0.5 µg/mL | > 10 µg/mL | 
O=C(Nc1ccc(NC(=S)NCc2ccc(F)c(Cl)c2)cc1)c1ccccc1F [Example 677, N-{4-[3-(3-Chloro-4-fluoro-benzyl)-thioureido]-phenyl}-2-fluoro-benzamide] | > 0.5 µg/mL | > 10 µg/mL | 
O=C(Nc1ccc(NC(=S)NCc2cc(C(F)(F)F)ccc2F)cc1)c1ccccc1F [Example 669, 2-Fluoro-N-{4-[3-(2-fluoro-5-trifluoromethyl-benzyl)-thioureido]-phenyl}-benzamide] |  |  | IC50 ([1]; read-out: IC50 ug/ml HCMV): > 0.5 µg/mL; IC50 (HSV- I; HSV- I, Vero cells, ELISA): > 10 µg/mL
O=C(Nc1ccc(NC(=S)NCCc2ccc(Cl)c(Cl)c2)cc1)c1ccccc1F [Example 719, N-(4-{3-[2-(3,4-Dichloro-phenyl)-ethyl]-thioureido}-phenyl)-2-fluoro-benzamide] | > 0.5 µg/mL | > 10 µg/mL | 
O=C(Nc1ccc(NC(=S)NCCOc2cc(Cl)cc(Cl)c2)cc1)c1ccccc1F [Example 664, N-(4-{3-[2-(3,5-Dichloro-phenoxy)-ethyl]-thioureido}-phenyl)-2-fluoro-benzamide] | > 0.5 µg/mL | 10 µg/mL (≈ 20.9 µM) | 
O=C(Nc1ccc(NC(=S)Nc2ccc(Cl)cc2)cc1)c1ccccc1F [Example 946, N-{4-[3-(4-Chloro-phenyl)-thioureido]-phenyl}-2-fluoro-benzamide] | > 10 µg/mL | > 10 µg/mL | 
O=C(Nc1ccc(NC(=S)NC(c2ccccc2)c2ccc(F)cc2)cc1)c1ccccc1F (centres unmarked) [Example 772, 2-Fluoro-N-(4-{3-[(4-fluoro-phenyl)-phenyl-methyl]-thioureido}-phenyl)-benzamide] | 0.35 µg/mL (≈ 0.739 µM) | > 10 µg/mL | 
Cc1cc(CCNC(=S)Nc2ccc(NC(=O)c3ccccc3F)cc2)ccc1N(C)C [Example 673, N-(4-{3-[2-(4-Dimethylamino-3-methyl-phenyl)-ethyl]-thioureido}-phenyl)-2-fluoro-benzamide] | > 0.5 µg/mL | 7 µg/mL (≈ 15.5 µM) | 
CC(C)(NC(=S)Nc1ccc(NC(=O)c2ccccc2F)cc1)c1ccccc1 [Example 727, 2-Fluoro-N-{4-[3-(1-methyl-1-phenyl-ethyl)-thioureido]-phenyl}-benzamide] |  | > 10 µg/mL | 
CC(C)(C)c1ccc(CNC(=S)Nc2ccc(NC(=O)c3ccccc3F)cc2)cc1 [Example 724, N-{4-[3-(4-tert-Butyl-benzyl)-thioureido]-phenyl}-2-fluoro-benzamide] |  | > 10 µg/mL | 
CN1CCN(c2ccc(CNC(=S)Nc3ccc(NC(=O)c4ccccc4F)cc3)cc2C(F)(F)F)CC1 [Example 687, 2-Fluoro-N-(4-{3-[4-(4-methyl-piperazin-1-yl)-3-trifluoromethyl-benzyl]-thioureido}-phenyl)-benzamide] | > 0.5 µg/mL | 1.2 µg/mL (≈ 2.2 µM) | 
O=C(Nc1ccc(NC(=S)Nc2cccc(Cl)c2)cc1)c1ccccc1F [Example 944, N-{4-[3-(3-Chloro-phenyl)-thioureido]-phenyl}-2-fluoro-benzamide] | 3 µg/mL (≈ 7.5 µM) | > 10 µg/mL | 
O=C(Nc1ccc(NC(=S)NCc2cccc(I)c2)cc1)c1ccccc1F [Example 661, 2-Fluoro-N-{4-[3-(3-iodo-benzyl)-thioureido]-phenyl}-benzamide] |  |  | IC50 ([1]; read-out: IC50 ug/ml HCMV): > 0.5 µg/mL; IC50 (HSV- I; HSV- I, Vero cells, ELISA): > 10 µg/mL
O=C(Nc1ccc(NC(=S)NCCOc2ccc(I)cc2)cc1)c1ccccc1F [Example 696, 2-Fluoro-N-(4-{3-[2-(4-iodo-phenoxy)-ethyl]-thioureido}-phenyl)-benzamide] |  |  | IC50 ([1]; read-out: IC50 ug/ml HCMV): > 3 µg/mL; IC50 (HSV- I; HSV- I, Vero cells, ELISA): 10 µg/mL (≈ 18.7 µM)
O=C(Nc1ccc(NC(=S)NCc2ccc(F)c(F)c2)cc1)c1ccccc1F [Example 672, N-{4-[3-(3,4-Difluoro-benzyl)-thioureido]-phenyl}-2-fluoro-benzamide] |  |  | IC50 ([1]; read-out: IC50 ug/ml HCMV): > 0.5 µg/mL; IC50 (HSV- I; HSV- I, Vero cells, ELISA): > 10 µg/mL
CN(C)c1cc(CCNC(=S)Nc2ccc(NC(=O)c3ccccc3F)cc2)cc(C(F)(F)F)c1 [Example 653, N-(4-{3-[2-(3-Dimethylamino-5-trifluoromethyl-phenyl)-ethyl]-thioureido}-phenyl)-2-fluoro-benzamide] | > 0.5 µg/mL | > 10 µg/mL | 
CC(NC(=S)Nc1ccc(NC(=O)c2cc3ccccc3cn2)cc1)c1ccc(F)cc1 (centres unmarked) [Example 984, Isoquinoline-3-carboxylic acid (4-{3-[1-(4-fluoro-phenyl)-ethyl]-thioureido}-phenyl)-amide] | 1.5 µg/mL (≈ 3.37 µM) |  | IC50 (VZV strain Ellen; Human alphaherpesvirus 3, HFF, read-out: IC50 (ug/ml) VZV, VZV strain Ellen, HFF cells, ELISA): 0.08 µg/mL (≈ 0.18 µM)
CN(C)c1cc(NC(=S)Nc2ccc(NC(=O)c3ccccc3F)cc2)cc(C(F)(F)F)c1 [Example 567, N-{4-[3-(3-Dimethylamino-5-trifluoromethyl-phenyl)-thioureido]-phenyl}-2-fluoro-benzamide] |  |  | IC50 ([1]; read-out: IC50 ug/ml HCMV): > 0.5 µg/mL; IC50 (VZV strain Ellen; Human alphaherpesvirus 3, VZV strain Ellen, HFF cells, ELISA, read-out: IC50 (ug/ml) VZV): 2 µg/mL (≈ 4.2 µM)
O=C(Nc1ccc(NC(=S)NCCc2ccccc2F)cc1)c1ccccc1F [Example 721, 2-Fluoro-N-(4-{3-[2-(2-fluoro-phenyl)-ethyl]-thioureido}-phenyl)-benzamide] |  |  | IC50 (HSV- I; HSV- I, Vero cells, ELISA): > 10 µg/mL
O=C(Nc1ccc(NC(=S)Nc2cccc(Cl)c2Cl)cc1)c1ccccc1F [Example 927, N-{4-[3-(2,3-Dichloro-phenyl)-thioureido]-phenyl}-2-fluoro-benzamide] | 2 µg/mL (≈ 4.6 µM) | 5 µg/mL (≈ 11.5 µM) | 
